Data: patent US20230165873A1, “Methods of Use for Single Molecule Compounds Providing Multi-Target Inhibition to Treat Covid 19” (priority 2020, published 2023)
Read-outs that look alike come from different tables or passages of the source.

Key:
SARS-CoV-2 [1] = test: microbe, parasite or virus in culture; type: cell-based; conditions: read-out: IC50 based on SARS-CoV-2 viral loads in culture supernatant
SARS-CoV-2 [2] = test: microbe, parasite or virus in culture; type: cell-based; conditions: for EC50: read-out: Median Effective Dose
mTOR = mTOR (Homo sapiens, UniProt P42345); test: mTOR in vitro inhibition; type: biochemical
Protocol: (§1) The kinase or bromodomain inhibitory activity of a compound of the invention can be determined by routine methods known to the skilled artisan without undue experimentation, or by procuring relevant analysis by a commercial vendor offering such services. […] In vivo, PI3K inhibition can be determined from target tissue biopsies by standard tissue processing in which cells are disrupted and Western Blot analysis is performed to determine the presence or absence of pAKT (substrate of PI3K) relative to a control sample. PI3K inhibition assays and BTK inhibition assays are known in the art and can be procured commercially through vendors such as Reaction Biology (Malvern, PA). The activity of a compound of the invention as an inhibitor of a bromodomain-containing protein, such as a BET protein, including BRD2, BRD3, BRD4, and/or BRDT, or an isoform or mutant thereof, may be determined in vitro, in vivo, or in a cell line. In vitro assays include assays that determine inhibition of bromodomain-containing proteins. Alternatively, inhibitor binding may be determined by running a competition experiment where a provided compound is incubated with a bromodomain-containing protein, such as a BET protein bound to known ligands, labeled or unlabeled. In vitro bromodomain inhibition assays can be performed using Alpha Screen Technology (Perkin Elmer Life and Analytical Sciences, Shelton, CT). In vivo bromodomain inhibition can be determined indirectly by evaluating the amount of a protein whose gene transcription is influenced or controlled by the bromodomain protein, for example, MYCN protein transcription is controlled by BRD4 (J.E. Delmore et al., Cell 2011, 146, 904-917; A. Puissant, Cancer Discov. 2013, 3, 308-323).
(§2) IC50 inhibition data against the indicated targets were determined for compounds of the invention using standard in vitro assays (Tables 8 and 9).

BTK = BTK (Homo sapiens, UniProt Q06187); test: BTK in vitro inhibition; type: biochemical
Protocol: as §1, §2

SARS-CoV-2 [3] = conditions: at effective anti-viral concentrations; Hela-ACE2 cells
BTK C481S = BTK C481S (Homo sapiens, UniProt Q06187, C481S); test: BTK C481S in vitro inhibition; type: biochemical
Protocol: as §1, §2

SARS-CoV-2 [4] = test: Cytopathic effect (CPE), CellTiter-Glo, SARS-CoV-2 infected UNCN1T cells; conditions: read-out: IC50 based on dose response curve by cytopathic effect (CPE), 24 hrs post-infection
SARS-CoV-2 [5] = test: microbe, parasite or virus in culture; type: cell-based; conditions: read-out: IC50 based on dose response curve by cytopathic effect (CPE)
PI3K beta = PI3K beta (Homo sapiens, UniProt P42338); test: PI3K beta in vitro inhibition; type: biochemical
Protocol: as §1

SARS-CoV-2 [6] = test: microbe, parasite or virus in culture; type: cell-based; conditions: for EC50: read-out: Median Effective Dose; remark: listed apart in the source
[7] = system: mice carrying the Fli1 deletion; test: Bleomycin-induced lung fibrosis in mice carrying the Fli1 deletion; type: in vivo; conditions: 50 mg/kg on day 9, 12, 15 after intra-tracheal bleomycin 0.4 mg/kg; sacrifice day 21
Text: Bleomycin-induced lung fibrosis is the most frequently used rodent model for lung fibrosis, and inflammatory and fibrotic events similar to those seen in human pulmonary fibrosis (Am J Respir Cell Mol Biol. 2013 Aug; 49(2): 167-179; https://www.atsjournals.org/doi/full/10.1165/rcmb.2013-0094TR; PMID: 23526222). Systemic sclerosis (SSc) is manifested by vasculopathy, immune dysregulation and fibrosis of the skin and certain internal organs, especially lungs (Nat Commun. 2014; 5: 5797.; https://www.nature.com/articles/ncomms6797; PMID: 25504335). Friend leukemia integration 1 (Fli1) is a potent repressor of the type I collagen gene. […] Bleomycin was administered intra-tracheally to mice (0.4 mg/kg) and no drug was given during the inflammatory phase (8 days). […] IRS-1 is a component of the insulin signaling pathway which is involved in the increased collagen production by cells carrying the Fli1 deletion.

PI3K gamma = PI3K gamma (Homo sapiens, UniProt P48736); test: PI3K gamma in vitro inhibition; type: biochemical
Chain of PI3K gamma (P48736 whole entry): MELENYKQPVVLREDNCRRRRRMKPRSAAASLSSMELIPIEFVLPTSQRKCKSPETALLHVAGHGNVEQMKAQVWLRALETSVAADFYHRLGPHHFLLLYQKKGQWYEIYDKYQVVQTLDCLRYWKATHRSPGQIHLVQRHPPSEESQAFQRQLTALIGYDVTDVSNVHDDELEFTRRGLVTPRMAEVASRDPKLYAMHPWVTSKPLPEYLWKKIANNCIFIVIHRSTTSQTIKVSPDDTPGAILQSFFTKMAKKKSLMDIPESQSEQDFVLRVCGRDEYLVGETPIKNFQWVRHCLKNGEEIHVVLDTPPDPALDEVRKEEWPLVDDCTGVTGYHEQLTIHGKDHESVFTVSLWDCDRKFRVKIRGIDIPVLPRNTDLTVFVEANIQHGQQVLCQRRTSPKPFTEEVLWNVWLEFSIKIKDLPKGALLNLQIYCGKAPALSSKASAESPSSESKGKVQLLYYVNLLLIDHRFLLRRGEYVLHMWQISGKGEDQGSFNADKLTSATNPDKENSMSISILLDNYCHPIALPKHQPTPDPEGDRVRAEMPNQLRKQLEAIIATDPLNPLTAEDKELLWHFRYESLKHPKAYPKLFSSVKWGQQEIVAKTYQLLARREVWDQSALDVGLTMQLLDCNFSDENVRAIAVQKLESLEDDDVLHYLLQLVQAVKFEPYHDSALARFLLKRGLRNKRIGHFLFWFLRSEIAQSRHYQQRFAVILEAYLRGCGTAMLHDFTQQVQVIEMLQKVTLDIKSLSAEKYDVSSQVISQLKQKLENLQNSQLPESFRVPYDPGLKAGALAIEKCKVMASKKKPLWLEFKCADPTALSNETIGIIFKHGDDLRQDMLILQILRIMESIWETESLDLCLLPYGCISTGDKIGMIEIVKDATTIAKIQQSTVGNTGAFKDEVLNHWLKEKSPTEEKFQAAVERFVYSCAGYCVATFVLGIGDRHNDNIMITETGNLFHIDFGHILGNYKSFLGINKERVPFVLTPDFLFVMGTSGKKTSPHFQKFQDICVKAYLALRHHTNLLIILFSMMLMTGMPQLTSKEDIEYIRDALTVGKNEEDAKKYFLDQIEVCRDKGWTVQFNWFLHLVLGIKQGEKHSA
Protocol: as §1, §2

BRD4-1 = molecular target: T1, BRD4-1 (Homo sapiens, UniProt O60885); test: BRD4-1 in vitro inhibition; type: binding
T1 construct: BRD4-1
Protocol: as §1

BRD4-2 = molecular target: T2, BRD4-2 (Homo sapiens, UniProt O60885); test: BRD4-2 in vitro inhibition; type: binding
T2 construct: BRD4-2
Protocol: as §1

SARS-CoV-2 [8] = test: microbe, parasite or virus in culture; conditions: for IC50: Severe acute respiratory syndrome coronavirus 2, HeLa-ACE2, read-out: IC50 inhibition of SARS-CoV-2 (viral plaques)
SARS-CoV-2 [9] = test: SARS-CoV-2 viral load in culture supernatant (RT-QPCR), UNCN1T cells
Syk = Syk (Homo sapiens, UniProt P43405); test: Syk in vitro inhibition; type: biochemical
Protocol: as §1, §2

PI3K delta = PI3K delta (Homo sapiens, UniProt O00329); test: PI3K delta in vitro inhibition; type: biochemical
Chain of PI3K delta (O00329 whole entry): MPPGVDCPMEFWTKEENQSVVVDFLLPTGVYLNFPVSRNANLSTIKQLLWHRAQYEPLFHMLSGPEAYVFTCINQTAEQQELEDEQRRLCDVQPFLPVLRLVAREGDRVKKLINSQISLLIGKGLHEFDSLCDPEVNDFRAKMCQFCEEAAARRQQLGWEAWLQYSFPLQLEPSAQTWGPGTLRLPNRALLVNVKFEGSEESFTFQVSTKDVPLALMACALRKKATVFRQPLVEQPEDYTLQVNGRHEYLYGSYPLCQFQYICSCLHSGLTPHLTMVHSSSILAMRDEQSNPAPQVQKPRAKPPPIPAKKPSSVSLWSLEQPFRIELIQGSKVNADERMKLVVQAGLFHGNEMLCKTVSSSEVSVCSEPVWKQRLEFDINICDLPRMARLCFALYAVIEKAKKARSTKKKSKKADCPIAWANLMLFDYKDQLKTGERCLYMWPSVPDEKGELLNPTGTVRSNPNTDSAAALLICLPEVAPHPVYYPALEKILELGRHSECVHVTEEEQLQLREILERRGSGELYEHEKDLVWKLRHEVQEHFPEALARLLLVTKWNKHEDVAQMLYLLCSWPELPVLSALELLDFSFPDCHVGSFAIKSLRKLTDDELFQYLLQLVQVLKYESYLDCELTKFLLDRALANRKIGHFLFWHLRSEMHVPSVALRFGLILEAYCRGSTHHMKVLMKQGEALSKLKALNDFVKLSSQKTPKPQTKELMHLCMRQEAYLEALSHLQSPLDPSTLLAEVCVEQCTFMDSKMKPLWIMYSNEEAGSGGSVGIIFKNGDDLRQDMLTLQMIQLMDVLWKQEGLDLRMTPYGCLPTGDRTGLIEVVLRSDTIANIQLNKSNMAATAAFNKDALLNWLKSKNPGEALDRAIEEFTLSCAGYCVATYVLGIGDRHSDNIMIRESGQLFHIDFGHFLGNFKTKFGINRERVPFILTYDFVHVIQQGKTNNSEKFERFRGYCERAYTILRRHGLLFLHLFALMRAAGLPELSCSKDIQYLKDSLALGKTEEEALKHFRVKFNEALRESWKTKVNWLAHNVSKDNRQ
Chain of PI3K delta (P27986 whole entry partner): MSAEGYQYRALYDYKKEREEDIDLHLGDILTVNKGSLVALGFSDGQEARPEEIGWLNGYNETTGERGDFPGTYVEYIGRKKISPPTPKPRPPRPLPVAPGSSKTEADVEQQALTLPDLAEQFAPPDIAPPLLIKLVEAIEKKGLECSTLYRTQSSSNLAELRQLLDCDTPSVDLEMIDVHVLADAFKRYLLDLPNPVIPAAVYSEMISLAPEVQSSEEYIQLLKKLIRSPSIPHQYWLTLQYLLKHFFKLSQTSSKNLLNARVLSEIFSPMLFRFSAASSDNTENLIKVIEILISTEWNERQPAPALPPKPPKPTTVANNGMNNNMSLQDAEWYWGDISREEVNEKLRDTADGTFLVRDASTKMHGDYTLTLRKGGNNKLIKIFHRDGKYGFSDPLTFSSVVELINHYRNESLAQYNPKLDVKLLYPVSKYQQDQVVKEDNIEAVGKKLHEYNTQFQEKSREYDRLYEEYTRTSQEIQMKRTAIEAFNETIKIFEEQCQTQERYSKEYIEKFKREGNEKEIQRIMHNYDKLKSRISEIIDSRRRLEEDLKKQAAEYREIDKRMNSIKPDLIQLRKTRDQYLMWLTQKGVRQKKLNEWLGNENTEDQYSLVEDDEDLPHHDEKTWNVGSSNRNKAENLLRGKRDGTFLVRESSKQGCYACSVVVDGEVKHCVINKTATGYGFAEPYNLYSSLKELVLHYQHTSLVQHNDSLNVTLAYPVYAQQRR
Protocol: as §1, §2

PI3K alpha = PI3K alpha (Homo sapiens, UniProt P42336); test: PI3K alpha in vitro inhibition; type: biochemical
Chain of PI3K alpha (P42336 whole entry): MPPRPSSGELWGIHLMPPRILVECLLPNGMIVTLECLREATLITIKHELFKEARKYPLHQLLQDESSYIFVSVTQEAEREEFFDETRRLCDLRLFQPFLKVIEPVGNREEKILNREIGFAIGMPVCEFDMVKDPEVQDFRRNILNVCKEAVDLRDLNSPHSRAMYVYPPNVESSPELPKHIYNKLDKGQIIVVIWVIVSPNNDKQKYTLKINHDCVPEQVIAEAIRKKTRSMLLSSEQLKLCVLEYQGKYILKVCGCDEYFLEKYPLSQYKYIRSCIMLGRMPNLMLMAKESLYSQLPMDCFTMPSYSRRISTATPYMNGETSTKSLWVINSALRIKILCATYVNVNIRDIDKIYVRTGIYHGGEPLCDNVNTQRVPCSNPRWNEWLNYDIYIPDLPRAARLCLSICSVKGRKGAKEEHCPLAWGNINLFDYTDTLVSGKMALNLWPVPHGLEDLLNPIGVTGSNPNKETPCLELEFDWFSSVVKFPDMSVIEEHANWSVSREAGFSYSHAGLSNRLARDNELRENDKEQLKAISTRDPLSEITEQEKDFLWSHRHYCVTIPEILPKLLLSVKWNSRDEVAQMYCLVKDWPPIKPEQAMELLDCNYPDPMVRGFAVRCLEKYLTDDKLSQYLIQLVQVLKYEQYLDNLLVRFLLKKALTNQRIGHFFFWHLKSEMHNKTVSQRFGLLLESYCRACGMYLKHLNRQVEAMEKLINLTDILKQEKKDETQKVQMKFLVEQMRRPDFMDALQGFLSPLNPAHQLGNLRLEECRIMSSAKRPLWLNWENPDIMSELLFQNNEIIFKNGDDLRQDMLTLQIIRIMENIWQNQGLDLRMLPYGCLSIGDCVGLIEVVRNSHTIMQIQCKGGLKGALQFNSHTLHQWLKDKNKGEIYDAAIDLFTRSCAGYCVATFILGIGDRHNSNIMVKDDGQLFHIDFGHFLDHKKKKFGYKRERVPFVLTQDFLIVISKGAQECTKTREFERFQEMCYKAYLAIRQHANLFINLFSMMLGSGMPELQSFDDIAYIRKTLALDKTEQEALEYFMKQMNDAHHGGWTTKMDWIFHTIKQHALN
Chain of PI3K alpha (P27986 whole entry partner): as the sequence (P27986 whole entry partner) above
Protocol: as §1

CDK4 cyclinD1 = CDK4 cyclinD1 (Homo sapiens, UniProt P11802); test: CDK4 cyclinD1 in vitro inhibition; type: biochemical
Chain of CDK4 cyclinD1 (P11802 whole entry): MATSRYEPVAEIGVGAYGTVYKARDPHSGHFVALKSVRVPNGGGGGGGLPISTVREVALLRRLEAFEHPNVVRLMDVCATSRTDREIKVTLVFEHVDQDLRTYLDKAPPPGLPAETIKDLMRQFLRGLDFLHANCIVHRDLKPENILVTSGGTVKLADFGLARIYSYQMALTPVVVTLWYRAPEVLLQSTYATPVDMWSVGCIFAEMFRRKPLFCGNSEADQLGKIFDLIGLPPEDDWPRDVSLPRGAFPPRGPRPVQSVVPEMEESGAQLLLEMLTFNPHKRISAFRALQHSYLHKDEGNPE
Chain of CDK4 cyclinD1 (P24385 whole entry partner): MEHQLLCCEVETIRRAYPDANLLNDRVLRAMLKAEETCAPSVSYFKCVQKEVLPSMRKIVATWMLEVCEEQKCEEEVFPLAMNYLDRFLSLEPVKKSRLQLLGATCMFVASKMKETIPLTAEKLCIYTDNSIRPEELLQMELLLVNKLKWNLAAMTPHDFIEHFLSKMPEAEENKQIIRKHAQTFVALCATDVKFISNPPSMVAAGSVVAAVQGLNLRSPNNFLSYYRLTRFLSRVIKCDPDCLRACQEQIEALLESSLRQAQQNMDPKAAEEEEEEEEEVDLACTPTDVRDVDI
Protocol: as §1, §2

CDK6 cyclinD1 = CDK6 cyclinD1 (Homo sapiens, UniProt Q00534); test: CDK6 cyclinD1 in vitro inhibition; type: biochemical
Chain of CDK6 cyclinD1 (Q00534 whole entry): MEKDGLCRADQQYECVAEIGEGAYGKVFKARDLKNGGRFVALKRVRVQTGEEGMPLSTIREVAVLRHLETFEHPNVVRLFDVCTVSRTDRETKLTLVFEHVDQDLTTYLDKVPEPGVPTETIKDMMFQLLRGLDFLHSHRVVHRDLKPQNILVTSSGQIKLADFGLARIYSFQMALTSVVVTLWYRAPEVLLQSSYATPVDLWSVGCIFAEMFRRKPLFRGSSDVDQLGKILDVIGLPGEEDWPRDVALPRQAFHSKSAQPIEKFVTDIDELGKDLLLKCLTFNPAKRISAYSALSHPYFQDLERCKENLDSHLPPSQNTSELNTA
Chain of CDK6 cyclinD1 (P24385 whole entry partner): as the sequence (P24385 whole entry partner) above
Protocol: as §1, §2

[10] = Severe acute respiratory syndrome coronavirus 2, 24 h
[11] = Severe acute respiratory syndrome coronavirus 2, 48 h
[12] = read-out: IC50 based on SARS-CoV-2 viral loads in culture supernatant, 24 hrs post-infection
[13] = read-out: IC50 based on SARS-CoV-2 viral loads in culture supernatant, 48 hrs post-infection
[14] = read-out: IC50 inhibition PI3K gamma

Row | Compound | IC50 (mTOR) [nM] | IC50 (BRD4-1) [nM] | IC50 (BRD4-2) [nM] | IC50 (Syk) [nM] | IC50 (PI3K delta) [nM] | IC50 (PI3K alpha) [nM] | IC50 (CDK4 cyclinD1) [nM] | IC50 (PI3K gamma; [14]) [nM] | IC50 (CDK6 cyclinD1) [nM] | also measured
1 | O=c1cc(N2CCOCC2)oc2c(-c3ccc4c(c3)OCCO4)csc12 [Compound 0] | < 500 | < 500 | 500 to 1000 |  |  |  |  |  |  | IC50 (SARS-CoV-2 [1]; [10]): 1020 nM; IC50 (SARS-CoV-2 [1]; [11]): 3220 nM; EC50 (SARS-CoV-2 [2]; Severe acute respiratory syndrome coronavirus 2, VERO STAT1 KO Cells, 24 hours post-infection): 2620 nM; IC50 (BTK): 10000 to 45000 nM; cellular cytotoxicity (SARS-CoV-2 [3]): no cellular cytotoxicity is noted; IC50 (BTK C481S): 10000 to 45000 nM; IC50 (SARS-CoV-2 [4]): 250 nM; IC50 (SARS-CoV-2 [5]; [10]): 1800 nM; IC50 (SARS-CoV-2 [5]; [11]): 4400 nM; IC50 (PI3K beta): < 500 nM; EC50 (SARS-CoV-2 [6]; Severe acute respiratory syndrome coronavirus 2, UNCN1T Cells, 24 hours post-infection): 1840 nM; prevention of development of fibrosis (Masson Trichrome staining, tissue collagen content, Ashcroft score) [7]: remarkably effective in preventing the development of fibrosis; IC50 (PI3K gamma; IC50 inhibition PI3K gamma): < 500 nM; inhibition at 2.4 µM (SARS-CoV-2 [8]; Severe acute respiratory syndrome coronavirus 2, HeLa-ACE2): 94%; IC50 (SARS-CoV-2 [8]): 900 nM; IC50 (SARS-CoV-2 [9]; [12]): 1520 nM; IC50 (SARS-CoV-2 [9]; [13]): 1580 nM
2 | Cc1nn(-c2ccnc(Nc3ccc(-c4csc5c(=O)cc(N6CCOCC6)oc45)cc3)n2)cc1CN(C)C [Compound 57] |  | 1000 to 10000 | 1000 to 10000 | < 500 | 500 to 1000 | 500 to 1000 | < 500 | 10000 to 45000 | < 500 | 
3 | Cc1nn(-c2ccnc(Nc3ccc(-c4csc5c(=O)cc(N6CCOCC6)oc45)cc3)n2)cc1CN1CC(O)C1 [Compound 52] |  | > 45000 | > 45000 | < 500 | 1000 to 10000 | 500 to 1000 | 10000 to 45000 | 10000 to 45000 | < 500 | 
4 | CN(C)C(=O)c1cc2cnc(Nc3ccc(-c4csc5c(=O)cc(N6CCOCC6)oc45)nc3)nc2n1C1CCCC1 [Compound 7] | 1000 to 10000 | 10000 to 45000 | 1000 to 10000 |  |  | 1000 to 10000 | < 500 | 10000 to 45000 | < 500 | IC50 (PI3K beta): 10000 to 45000 nM
5 | CN(C)C(=O)c1cc2cnc(Nc3ccc(-c4csc5c(=O)cc(N6CCOCC6)oc45)cc3)nc2n1C1CCCC1 [Compound 6] | 1000 to 10000 |  |  |  |  |  | < 500 | 1000 to 10000 | < 500 | 
6 | CCC(CC)COC(=O)[C@H](C)N[P@](=O)(OC[C@H]1O[C@@](C#N)(c2ccc3c(N)ncnn23)[C@H](O)[C@@H]1O)Oc1ccccc1 [Remdesivir, reference compound] |  |  |  |  |  |  |  |  |  | IC50 (SARS-CoV-2 [1]; [10]): 1030 nM; IC50 (SARS-CoV-2 [1]; [11]): 760 nM; EC50 (SARS-CoV-2 [2]; Severe acute respiratory syndrome coronavirus 2, Vero, 24 h): 533 nM; dose reduction index (DRI) (SARS-CoV-2 [2]; VERO-STAT1 KO cells at Fa 0.5): 2.35; IC50 (SARS-CoV-2 [4]): 220 nM; IC50 (SARS-CoV-2 [5]; [10]): 2240 nM; IC50 (SARS-CoV-2 [5]; [11]): 4600 nM; EC50 (SARS-CoV-2 [6]; [10]): 272 nM; dose reduction index (DRI) (SARS-CoV-2 [6]; UNCN1T cells): 3.75; IC50 (SARS-CoV-2 [8]): 100 nM; IC50 (SARS-CoV-2 [9]; [12]): 1060 nM; IC50 (SARS-CoV-2 [9]; [13]): 2750 nM
7 | Cc1nn(-c2ccnc(Nc3ccc(-c4csc5c(=O)cc(N6CCOCC6)oc45)cc3)n2)cc1CN1CCOCC1 [Compound 58] |  | 1000 to 10000 | 1000 to 10000 | > 45000 | < 500 | 500 to 1000 | > 45000 | 10000 to 45000 | > 45000 | 
8 | Cc1nn(-c2ccnc(Nc3ccc(-c4csc5c(=O)cc(N6CCN(C(=O)OC(C)(C)C)CC6)oc45)cc3)n2)cc1CN1CC(O)C1 [Compound 56] |  | 1000 to 10000 | > 45000 | < 500 | 1000 to 10000 | 1000 to 10000 | 1000 to 10000 | 10000 to 45000 | 500 to 1000 | 
